Measured values taken from US12421210B2, “Fused bicyclic heterocycles as therapeutic agents” (NEW YORK UNIVERSITY, priority 2018, dated 2025).

The molecules below were run against human NAMPT enzyme (His-hNAMPT) (Homo sapiens (Human), UniProt P43490) (assay: NAMPT enzymatic inhibition assay (fluorescence, NADH product)). Details: [BPS]; read-out: NAMPT IC50 (μM) [BPS].
Assay type: biochemical

Sequence of human NAMPT enzyme (His-hNAMPT) (P43490 whole entry): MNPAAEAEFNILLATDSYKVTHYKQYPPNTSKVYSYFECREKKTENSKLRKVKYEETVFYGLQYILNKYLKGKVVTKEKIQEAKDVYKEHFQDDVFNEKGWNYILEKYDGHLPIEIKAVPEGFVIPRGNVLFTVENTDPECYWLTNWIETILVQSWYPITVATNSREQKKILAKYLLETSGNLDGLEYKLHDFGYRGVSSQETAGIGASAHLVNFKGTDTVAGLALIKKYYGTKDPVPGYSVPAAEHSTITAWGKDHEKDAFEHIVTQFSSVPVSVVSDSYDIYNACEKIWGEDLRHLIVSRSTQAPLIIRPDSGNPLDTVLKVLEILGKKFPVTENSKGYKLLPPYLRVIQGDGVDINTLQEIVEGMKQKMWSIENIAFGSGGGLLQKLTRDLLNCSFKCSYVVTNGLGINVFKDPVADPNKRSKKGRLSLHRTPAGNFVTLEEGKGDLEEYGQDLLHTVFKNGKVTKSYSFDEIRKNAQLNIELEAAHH

IC50, 0.01 to 0.49 µM:
CC(C)(C)OC(=O)N1C[C@H]2C[C@@H](CNC(=O)N3Cc4ccncc4C3)C[C@H]2C1 [Example 267, tert-butyl (3aR,5r,6aS)-5-((2,3-dihydro-1H-pyrrolo[3,4-c]pyridine-2-carboxamido)methyl)hexahydrocyclopenta[c]pyrrole-2(1H)-carboxylate]
Nc1ccc(/C=C/C(=O)NCC[C@@H]2[C@H]3CN(c4ncccn4)C[C@@H]23)cn1 [Example 189, (E)-3-(6-aminopyridin-3-yl)-N-(2-((1R,5S,6s)-3-(pyrimidin-2-yl)-3-azabicyclo[3.1.0]hexan-6-yl)ethyl)acrylamide]
Nc1ccc(/C=C/C(=O)NCC[C@@H]2[C@H]3CN(C(=O)CC4CCOCC4)C[C@@H]23)cn1 [Example 94, (E)-3-(6-aminopyridin-3-yl)-N-(2-((1R,5S,6s)-3-(2-(tetrahydro-2H-pyran-4-yl)acetyl)-3-azabicyclo[3.1.0]hexan-6-yl)ethyl)acrylamide]
Cc1ccncc1C(=O)N1C[C@@H]2[C@@H](CCNC(=O)/C=C/c3ccc(N)nc3)[C@@H]2C1 [Example 92, (E)-3-(6-aminopyridin-3-yl)-N-(2-((1R,5S,6s)-3-(4-methylnicotinoyl)-3-azabicyclo[3.1.0]hexan-6-yl)ethyl)acrylamide]

Same assay, conditions: [HDB]; read-out: NAMPT IC50 (μM) [HDB]

IC50, < 0.01 µM:
CN1CCN(c2ncc(F)c(N3C[C@@H]4[C@@H](CCNC(=O)/C=C/c5cccnc5)[C@@H]4C3)n2)CC1 [Example 325, (E)-N-(2-((1R,5S,6s)-3-(5-fluoro-2-(4-methylpiperazin-1-yl)pyrimidin-4-yl)-3-azabicyclo[3.1.0]hexan-6-yl)ethyl)-3-(pyridin-3-yl)acrylamide]
Cc1nc2cccc(N3C[C@@H]4[C@@H](CCNC(=O)/C=C/c5cccnc5)[C@@H]4C3)c2o1 [Example 334, (E)-N-(2-((1R,5S,6s)-3-(2-methylbenzo[d]oxazol-7-yl)-3-azabicyclo[3.1.0]hexan-6-yl)ethyl)-3-(pyridin-3-yl)acrylamide]
O=C(/C=C/c1cccnc1)NCC[C@@H]1[C@H]2CN(c3ccc4cnccc4c3)C[C@@H]12 [Example 142, (E)-N-(2-((1R,5S,6s)-3-(isoquinolin-6-yl)-3-azabicyclo[3.1.0]hexan-6-yl)ethyl)-3-(pyridin-3-yl)acrylamide]
CNc1ncc(F)c(N2C[C@@H]3[C@@H](CCNC(=O)/C=C/c4cccnc4)[C@@H]3C2)n1 [Example 327, (E)-N-(2-((1R,5S,6s)-3-(5-fluoro-2-(methylamino)pyrimidin-4-yl)-3-azabicyclo[3.1.0]hexan-6-yl)ethyl)-3-(pyridin-3-yl)acrylamide]
O=C(/C=C/c1cccnc1)NCC[C@@H]1[C@H]2CN(c3nc(N4CCNC(=O)C4)ncc3F)C[C@@H]12 [Example 333, (E)-N-(2-((1R,5S,6s)-3-(5-fluoro-2-(3-oxopiperazin-1-yl)pyrimidin-4-yl)-3-azabicyclo[3.1.0]hexan-6-yl)ethyl)-3-(pyridin-3-yl)acrylamide]
COC(=O)C(c1ccccc1)N1C[C@@H]2[C@@H](CCNC(=O)/C=C/c3cccnc3)[C@@H]2C1 (stereo partly drawn) [Example 309, methyl 2-phenyl-2-((1R,5S,6s)-6-(2-((E)-3-(pyridin-3-yl)acrylamido)ethyl)-3-azabicyclo[3.1.0]hexan-3-yl)acetate]

IC50, 0.01 to 0.49 µM:
O=C(/C=C/c1cccnc1)NCC[C@@H]1[C@H]2CN(c3ccncn3)C[C@@H]12 [Example 168, (E)-3-(pyridin-3-yl)-N-(2-((1R,5S,6s)-3-(pyrimidin-4-yl)-3-azabicyclo[3.1.0]hexan-6-yl)ethyl)acrylamide]
O=C(NCC[C@@H]1[C@H]2CN(c3ncccn3)C[C@@H]12)c1cnc2nccn2c1 [Example 199, N-(2-((1R,5S,6s)-3-(pyrimidin-2-yl)-3-azabicyclo[3.1.0]hexan-6-yl)ethyl)imidazo[1,2-a]pyrimidine-6-carboxamide]
